The values that follow come from ChEMBL document CHEMBL3045780, “EGFR tyrosine kinase targeted compounds: synthesis, docking study, and in vitro antitumor activity of some new quinazoline and benzo[d]isothiazole derivatives” (Med Chem Res, 2011).

Converted amounts (≈) assume the structure as drawn.

In this experiment the test system is MCF7. The experiment can be described thus: Cytotoxicity against Homo sapiens (human) MCF7 cells after 48 hr by SRB assay. The format is functional, cell-based. To be noted: MCF7, 48 h. (In SRB staining, fixed cells bind dye roughly in proportion to their protein.)

Broadly, the IC50 is the concentration at which inhibition is half-maximal. A higher IC50 goes with weaker potency in that assay. As to `c1ccc2c(Nc3ccc(Nc4ncnc5ccccc45)cc3)ncnc2c1`, the concentration for half-maximal inhibition (IC50) turned out to be 0.06 µg/mL (≈ 0.165 µM).

`O=S1(=O)N=C(Nc2ccc(NC3=NS(=O)(=O)c4ccccc43)cc2)c2ccccc21` registered an IC50 of 2.76 µg/mL (≈ 6.29 µM).

As to `c1ccc2c(NCCNc3ncnc4ccccc34)ncnc2c1`, the midpoint of inhibition, the IC50, lay at 2.04 µg/mL (≈ 6.45 µM).

For the compound `O=S1(=O)N=C(NCCNC2=NS(=O)(=O)c3ccccc32)c2ccccc21`, the IC50 was 3.69 µg/mL (≈ 9.45 µM).

Take `NS(=O)(=O)c1ccc(NC2=NS(=O)(=O)c3ccccc32)cc1`: inhibition was half-maximal at 4.17 µg/mL (≈ 12.4 µM) (IC50).

Regarding `N=C(N)NS(=O)(=O)c1ccc(NC2=NS(=O)(=O)c3ccccc32)cc1`, the 50% inhibitory concentration (IC50) was 4.3 µg/mL (≈ 11.3 µM).

Compound `NS(=O)(=O)c1ccc(NNc2ncnc3ccccc23)cc1` showed an IC50 of 1.13 µg/mL (≈ 3.58 µM).

Take `N=C(N)NS(=O)(=O)c1ccc(NNc2ncnc3ccccc23)cc1`: 1.65 µg/mL (≈ 4.62 µM) corresponded to half-maximal inhibition (IC50).

Compound `NS(=O)(=O)c1ccc(NNC2=NS(=O)(=O)c3ccccc32)cc1` yielded an IC50 of 3.73 µg/mL (≈ 10.6 µM). Compared with the last compound, the IC50 is about 2.3-fold higher.

`N=C(N)NS(=O)(=O)c1ccc(NNC2=NS(=O)(=O)c3ccccc32)cc1` displayed an IC50 of 4.35 µg/mL (≈ 11 µM).

`c1ccc(-c2nnc(Nc3ncnc4ccccc34)s2)cc1` yielded an IC50 of 3.61 µg/mL (≈ 11.8 µM). The IC50 values of the last two compounds are within 1.5-fold of each other.

Turning to `Clc1ccc(-c2nnc(Nc3ncnc4ccccc34)s2)cc1`, the IC50 came to 2.04 µg/mL (≈ 6 µM). This IC50 is about 1.8-fold lower than that of the compound before.

For `O=S1(=O)N=C(Nc2nnc(-c3ccccc3)s2)c2ccccc21`, half-maximal inhibition (IC50) was put at 2.92 µg/mL (≈ 8.53 µM).

Turning to `O=S1(=O)N=C(Nc2nnc(-c3ccc(Cl)cc3)s2)c2ccccc21`, the IC50 is 2.92 µg/mL (≈ 7.75 µM).

In turn, `c1cc(Nc2ncnc3ccccc23)cc(Nc2ncnc3ccccc23)c1` showed a half-inhibitory concentration (IC50) of 2.04 µg/mL (≈ 5.6 µM).

The compound `O=S1(=O)N=C(Nc2cccc(NC3=NS(=O)(=O)c4ccccc43)c2)c2ccccc21` returned an IC50 of 3.14 µg/mL (≈ 7.16 µM).

For the compound `O=C(NS(=O)(=O)c1ccc(Cl)cc1)n1cnc2ccccc2c1=O`, it took 3.74 µg/mL (≈ 10.3 µM) to reach half-maximal inhibition (IC50).

`Cc1ccc(S(=O)(=O)NC(=O)n2cnc3ccccc3c2=O)cc1` displayed an IC50 of 3.96 µg/mL (≈ 11.5 µM).

Compound `O=C(NS(=O)(=O)c1ccc(Cl)cc1)N1C(=O)c2ccccc2S1(=O)=O` had a concentration for half-maximal inhibition (IC50) of 6.03 µg/mL (≈ 15 µM).

In turn, `Cc1ccc(S(=O)(=O)NC(=O)N2C(=O)c3ccccc3S2(=O)=O)cc1` came in with a concentration for half-maximal inhibition (IC50) of 5.65 µg/mL (≈ 14.9 µM).

`NS(=O)(=O)c1ccc(Nc2ncnc3ccccc23)cc1` yielded an IC50 of 2.4 µg/mL (≈ 7.99 µM).

Turning to `N=C(N)NS(=O)(=O)c1ccc(Nc2ncnc3ccccc23)cc1`, the IC50 worked out at 1.85 µg/mL (≈ 5.4 µM).
